Laboratory results published in ChEMBL document CHEMBL1201862, “PubChem BioAssay data set” (2004).
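Five compound concentrations were applied to cells in 96-well plates for 48 hours; endpoints were derived by simple linear interpolation of the resulting dose-response curve. GI50 marks 50% less growth.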 Activity calls are given as the source filed them. Rule as the data show it: active = GI50 up to about 1.1 µM and inactive = higher.

Tests used:
Experiment in all cases: growth of human tumour cells (NCI), 48 h
IGROV-1 = tested on: IGROV-1
SK-MEL-5 = tested on: SK-MEL-5
SK-MEL-28 = tested on: SK-MEL-28
BT-549 = tested on: BT-549
Hs-578T = tested on: Hs-578T
ACHN = tested on: ACHN
KM12 = tested on: KM12
HT-29 = tested on: HT-29
MOLT-4 = tested on: MOLT-4
UACC-257 = tested on: UACC-257
RPMI-8226 = tested on: RPMI-8226
SNB-75 = tested on: SNB-75
UO-31 = tested on: UO-31
A549 = tested on: A549
CAKI-1 = tested on: CAKI-1
NCI-H522 = tested on: NCI-H522
SK-OV-3 = tested on: SK-OV-3
MDA-MB-231 = tested on: MDA-MB-231
786-0 = tested on: 786-0
SK-MEL-2 = tested on: SK-MEL-2

Structure (SMILES) | GI50 (IGROV-1) | GI50 (SK-MEL-5) | GI50 (SK-MEL-28) | GI50 (BT-549) | GI50 (Hs-578T) | GI50 (ACHN) | GI50 (KM12) | GI50 (HT-29) | GI50 (MOLT-4) | GI50 (UACC-257) | GI50 (RPMI-8226) | GI50 (SNB-75) | GI50 (UO-31) | GI50 (A549) | GI50 (CAKI-1) | GI50 (NCI-H522) | GI50 (SK-OV-3) | GI50 (MDA-MB-231) | GI50 (786-0) | GI50 (SK-MEL-2)
Cc1c(CCOC=O)c(=O)[nH]c2nncn12 | > 100 µM (inactive) | > 100 µM (inactive) | > 100 µM (inactive) | > 100 µM (inactive) | > 100 µM (inactive) | > 100 µM (inactive) | > 100 µM (inactive) | > 100 µM (inactive) | > 100 µM (inactive) | > 100 µM (inactive) | > 100 µM (inactive) | > 100 µM (inactive) | > 100 µM (inactive) | > 100 µM (inactive) | > 10 µM (inactive) | > 100 µM (inactive) | > 100 µM (inactive) | > 100 µM (inactive) | > 100 µM (inactive) | –
CCCCC(=O)NC1(c2cc3ccccc3s2)CCCCC1 | > 100 µM (inactive) | > 100 µM (inactive) | > 100 µM (inactive) | > 100 µM (inactive) | > 100 µM (inactive) | > 100 µM (inactive) | > 100 µM (inactive) | > 100 µM (inactive) | – | > 100 µM (inactive) | 8.81 µM (inactive) | > 100 µM (inactive) | > 100 µM (inactive) | > 100 µM (inactive) | > 100 µM (inactive) | > 100 µM (inactive) | > 100 µM (inactive) | > 100 µM (inactive) | > 100 µM (inactive) | > 100 µM (inactive)
CCCCCCc1nn2c(-c3ccc(C)cc3)nnc2s1 | – | 77.1 µM (inactive) | > 100 µM (inactive) | > 100 µM (inactive) | > 100 µM (inactive) | > 100 µM (inactive) | > 100 µM (inactive) | > 100 µM (inactive) | 46.2 µM (inactive) | 42.1 µM (inactive) | > 100 µM (inactive) | > 100 µM (inactive) | > 100 µM (inactive) | > 100 µM (inactive) | > 100 µM (inactive) | 67.3 µM (inactive) | > 100 µM (inactive) | > 100 µM (inactive) | > 100 µM (inactive) | > 100 µM (inactive)
CC(=O)OC1=NN=C2COC(c3ccccc3OC(C)=O)=NN2C1 | > 50 µM (inactive) | 9.75 µM (inactive) | 21.9 µM (inactive) | > 50 µM (inactive) | 24 µM (inactive) | > 50 µM (inactive) | 31.5 µM (inactive) | 39 µM (inactive) | – | 20.4 µM (inactive) | > 50 µM (inactive) | 15.8 µM (inactive) | 38.2 µM (inactive) | > 50 µM (inactive) | > 50 µM (inactive) | > 50 µM (inactive) | > 50 µM (inactive) | > 50 µM (inactive) | 24.4 µM (inactive) | 36.2 µM (inactive)
Oc1ccc2ccccc2c1OCc1nnc(CCCCCCCCc2nnc(COc3c(O)ccc4ccccc34)n2Nc2ccccc2)n1Nc1ccccc1 | 7.05 µM (inactive) | 0.536 µM (active) | 5.14 µM (inactive) | 6.19 µM (inactive) | 18.2 µM (inactive) | 1.23 µM (inactive) | 12.5 µM (inactive) | 10.7 µM (inactive) | – | 6.38 µM (inactive) | 1.02 µM (active) | 38.4 µM (inactive) | 7.46 µM (inactive) | 10.5 µM (inactive) | 12.3 µM (inactive) | 11.1 µM (inactive) | 16.5 µM (inactive) | 15.3 µM (inactive) | 21.5 µM (inactive) | 18.2 µM (inactive)
NC(CSCc1ccccc1)C(=O)O (stereo not given) | > 100 µM (inactive) | > 100 µM (inactive) | > 100 µM (inactive) | > 100 µM (inactive) | > 100 µM (inactive) | > 100 µM (inactive) | > 100 µM (inactive) | > 100 µM (inactive) | – | > 100 µM (inactive) | > 100 µM (inactive) | > 100 µM (inactive) | > 100 µM (inactive) | > 100 µM (inactive) | > 100 µM (inactive) | > 100 µM (inactive) | > 100 µM (inactive) | > 100 µM (inactive) | > 100 µM (inactive) | > 100 µM (inactive)
C=C1CC2C[C@H](OS(=O)(=O)c3ccc(C)cc3)C(C1)N2C (stereo not given in full) | > 100 µM (inactive) | > 100 µM (inactive) | > 100 µM (inactive) | > 100 µM (inactive) | > 100 µM (inactive) | – | > 100 µM (inactive) | > 100 µM (inactive) | > 100 µM (inactive) | > 100 µM (inactive) | > 100 µM (inactive) | 61.9 µM (inactive) | > 100 µM (inactive) | > 100 µM (inactive) | > 100 µM (inactive) | > 100 µM (inactive) | > 100 µM (inactive) | > 100 µM (inactive) | > 100 µM (inactive) | > 100 µM (inactive)
COc1cccc(C=C2N=C(c3ccccc3)N(n3c(-c4ccccc4)nc4ccccc4c3=O)C2=O)c1 | 30.1 µM (inactive) | 34.8 µM (inactive) | 63.2 µM (inactive) | > 100 µM (inactive) | 48.2 µM (inactive) | 42.3 µM (inactive) | 37.9 µM (inactive) | 40.9 µM (inactive) | 30.3 µM (inactive) | 30.3 µM (inactive) | 40.2 µM (inactive) | 44.4 µM (inactive) | 40.1 µM (inactive) | 43.7 µM (inactive) | 41.2 µM (inactive) | 18.3 µM (inactive) | > 100 µM (inactive) | 57.9 µM (inactive) | 83.4 µM (inactive) | –
COc1cccc(N2C(=O)C3c4[nH]c5ccccc5c4C4c5ccccc5CCC4C3C2=O)c1 (stereo not given) | > 7.98 µM (inactive) | > 8.81 µM (inactive) | > 9.55 µM (inactive) | 4.91 µM (inactive) | 3 µM (inactive) | > 10 µM (inactive) | > 10 µM (inactive) | 9.93 µM (inactive) | > 10 µM (inactive) | – | > 10 µM (inactive) | 2.7 µM (inactive) | 4.27 µM (inactive) | 6.12 µM (inactive) | > 10 µM (inactive) | > 10 µM (inactive) | > 4.86 µM (inactive) | 5.06 µM (inactive) | 2.9 µM (inactive) | > 10 µM (inactive)
CSc1ncc2c(n1)-c1ccccc1OC2NC1CC1 (stereo not given) | 49 µM (inactive) | 78.3 µM (inactive) | – | 38 µM (inactive) | 38.1 µM (inactive) | 49.5 µM (inactive) | 73.5 µM (inactive) | > 100 µM (inactive) | 37.2 µM (inactive) | > 100 µM (inactive) | 31.3 µM (inactive) | 59 µM (inactive) | 33.2 µM (inactive) | > 100 µM (inactive) | 29.6 µM (inactive) | 24.8 µM (inactive) | > 100 µM (inactive) | > 100 µM (inactive) | > 100 µM (inactive) | > 100 µM (inactive)
CC12CCC(C(=O)O1)C(C)(C)O2 (stereo not given) | > 100 µM (inactive) | – | > 100 µM (inactive) | > 100 µM (inactive) | > 100 µM (inactive) | > 100 µM (inactive) | > 100 µM (inactive) | > 100 µM (inactive) | > 100 µM (inactive) | > 100 µM (inactive) | > 100 µM (inactive) | > 100 µM (inactive) | > 100 µM (inactive) | > 100 µM (inactive) | > 100 µM (inactive) | > 100 µM (inactive) | > 100 µM (inactive) | > 100 µM (inactive) | > 100 µM (inactive) | > 100 µM (inactive)
COCn1cnc2c(=O)nc(SC)n(-c3ccccc3)c21 | > 100 µM (inactive) | > 100 µM (inactive) | – | > 100 µM (inactive) | > 100 µM (inactive) | > 100 µM (inactive) | > 100 µM (inactive) | > 100 µM (inactive) | > 100 µM (inactive) | > 100 µM (inactive) | > 100 µM (inactive) | > 100 µM (inactive) | > 100 µM (inactive) | > 100 µM (inactive) | > 100 µM (inactive) | > 100 µM (inactive) | > 100 µM (inactive) | > 100 µM (inactive) | > 100 µM (inactive) | > 100 µM (inactive)
CCC1(CCSC(=N)N)C(=O)NC(=O)NC1=O | > 100 µM (inactive) | > 100 µM (inactive) | > 100 µM (inactive) | > 100 µM (inactive) | > 100 µM (inactive) | > 100 µM (inactive) | > 100 µM (inactive) | > 100 µM (inactive) | > 100 µM (inactive) | > 100 µM (inactive) | > 100 µM (inactive) | – | > 100 µM (inactive) | > 100 µM (inactive) | > 100 µM (inactive) | > 100 µM (inactive) | > 100 µM (inactive) | > 100 µM (inactive) | > 100 µM (inactive) | > 100 µM (inactive)
N=c1oc2ccc([N+](=O)[O-])cc2cc1C(=O)Nc1ccccn1 | 31.7 µM (inactive) | 93.5 µM (inactive) | 28.8 µM (inactive) | 48.4 µM (inactive) | 29.1 µM (inactive) | 35.5 µM (inactive) | 34.3 µM (inactive) | 49.8 µM (inactive) | > 100 µM (inactive) | > 100 µM (inactive) | 54.2 µM (inactive) | 60.1 µM (inactive) | – | > 100 µM (inactive) | > 100 µM (inactive) | 24.5 µM (inactive) | > 100 µM (inactive) | 21.6 µM (inactive) | 19.2 µM (inactive) | 16.2 µM (inactive)
O=[N+]([O-])C1(C2([N+](=O)[O-])CCCC2)CCCC1 | > 100 µM (inactive) | > 100 µM (inactive) | > 100 µM (inactive) | > 100 µM (inactive) | > 100 µM (inactive) | – | > 100 µM (inactive) | > 100 µM (inactive) | > 100 µM (inactive) | > 100 µM (inactive) | > 100 µM (inactive) | 61 µM (inactive) | 57.1 µM (inactive) | > 100 µM (inactive) | > 100 µM (inactive) | 50.7 µM (inactive) | > 100 µM (inactive) | > 100 µM (inactive) | > 100 µM (inactive) | > 100 µM (inactive)
